Measurements from PubChem BioAssay (NCI).
“And” between values parts separate entries of the source, which are not always exact repeats. Equal values may be shown once.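 Tested at 5 concentrations; 48 h exposure; 96-well plates; endpoints linearly interpolated, else capped at highest concentration. GI50 is the concentration that inhibits growth by half. TGI is the concentration that stops growth completely.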

Columns and labels:
Experiment in all cases: DTP human tumour cell line panel, 48 h
MCF7 breast = tested on: MCF7 breast
MDA-MB-435 = tested on: MDA-MB-435
NCI-H460 lung = tested on: NCI-H460 lung
OVCAR-4 ovarian = tested on: OVCAR-4 ovarian
HS 578T breast = tested on: HS 578T breast
DMS 273 small cell lung = tested on: DMS 273 small cell lung
KM20L2 colon = tested on: KM20L2 colon
DMS 114 small cell lung = tested on: DMS 114 small cell lung
LXFL 529 NSCLC = tested on: LXFL 529 NSCLC

Compound	GI50 (MCF7 breast)	TGI (MCF7 breast)	GI50 (MDA-MB-435)	TGI (MDA-MB-435) [µM]	GI50 (NCI-H460 lung)	TGI (NCI-H460 lung) [µM]	GI50 (OVCAR-4 ovarian)	TGI (OVCAR-4 ovarian) [µM]	GI50 (HS 578T breast)	TGI (HS 578T breast)	TGI (DMS 273 small cell lung) [µM]	TGI (KM20L2 colon) [µM]	TGI (DMS 114 small cell lung) [µM]	TGI (LXFL 529 NSCLC) [µM]	GI50 (KM20L2 colon) [µM]	GI50 (LXFL 529 NSCLC) [µM]
CC(C)(C)n1cc(-c2ccnc(NCCNS(=O)(=O)c3ccc(Br)cc3)c2)c(-c2cccc(O)c2)n1	1480 nM	3.7 µM	1780 nM	3.35	1930 nM	3.71	1.55 µM	3.59								
O=C1C=C(Nc2cccc(Br)c2)c2ccccc2C1=O	2710 nM	24.2 µM	190 nM	0.484	402 nM	25.7	11 µM	63.2	259 nM	14.4 µM						
Cc1c(C(C)C)cc(OCCO)cc1C(C)C		> 100 µM		> 100		> 100		> 100		93.3 µM						
COc1ccc(C[C@H]2C[C@@H](O)[C@@H](C)C/C=C/Cc3cccc(O)c3C(=O)O2)cn1	19500 nM	66.6 µM	19900 nM	46.6	22700 nM	96.3	23.7 µM	74.1	14400 nM	36.7 µM						
O=C(Oc1c(I)ccccc1=O)c1ccc([N+](=O)[O-])cc1		35.5 µM		42.4		23.5				68.2 µM						
Cc1ccc([P+](Cc2ccc([N+](=O)[O-])cc2)(c2ccc(C)cc2)c2ccc(C)cc2)cc1	2720 nM	12.6 µM	772 nM	3.6	4260 nM	16.8	2.2 µM	11.3	3460 nM	17.7 µM						
COC(=O)[C@H](Cc1ccccc1)NC(=O)c1csc([C@@H](C[C@H](C(C)C)N(C)C(=O)[C@@H](NC(=O)[C@H]2CCCCN2C)C2CC2)OC(C)=O)n1	10.8 nM	> 25 µM	8.84 nM	0.0841	54.6 nM	> 25	1.62 µM	> 25	24.5 nM	14.5 µM						
Nc1ncnc2occ(-c3ccc(NC(=O)Nc4cc(C(F)(F)F)cc(C(F)(F)F)c4)cc3)c12	3190 nM	6.96 µM	3450 nM	7.15	3100 nM	6.7	1.81 µM	5.92	2120 nM	8.03 µM						
Oc1cccc(-c2nc3ccccc3s2)c1		> 100 µM		> 100		> 100		> 100		44.4 µM						
CC1Cc2c(N(C)C)ncnc2N(C)c2ccc(Cl)cc21 (stereo not given)	1510 nM	> 100 µM	397 nM	> 100	3860 nM	46.6	9.76 µM	> 100	3080 nM	> 100 µM						
O=C(/C=C/N1CCN(c2cccc(C(F)(F)F)c2)CC1)c1ccc(Cl)cc1Cl	24700 nM	60.7 µM	25600 nM	44.6	30900 nM	97.3	25.1 µM	53.2	27500 nM	63.8 µM						
Clc1ccc2c(Cl)ncnc2c1						> 100		> 100			> 100	> 100				
CCOP(=O)(OCC)/C(C#N)=C\c1cccc2ccccc12		> 100 µM		> 100		> 100		> 100		57.7 µM		> 100				
CN1C(=O)c2cc(Cl)nc3c(NC(=O)c4cccc(Cl)c4)c(Cl)c(NC(=O)c4cccc(Cl)c4)c1c23	1940 nM	6.26 µM	1700 nM	3.2	2340 nM	5.17	1.7 µM	3.3	2480 nM	7.16 µM						
Cn1c(=O)n(-c2ccc(C(C)(C)C#N)cc2)c2c3cc(-c4cnc5ccccc5c4)ccc3ncc21	< 10 nM and 5.62 nM	12.2 µM and > 5.84 µM and > 100 µM	< 10 nM and 5.72 nM	0.0687	< 10 nM and 5.81 nM	> 100	0.0162 µM and 0.00409 µM and 0.01 µM		< 10 nM and 2.04 nM	0.0195 µM and 0.00587 µM						
c1ccc2c(c1)nc(NCCN1CCNCC1)c1c3ccccc3[nH]c21	79.9 nM	0.709 µM	798 nM	2.24	221 nM	1.14	0.379 µM	2.24	1190 nM	4.67 µM						
COc1ccc2c(c1O)[C@@]13C=C(O)C(=O)C=C1[C@@H](C2)N(C)CC3		> 100 µM		> 100		> 100		> 100		> 100 µM						
COc1cc[nH]c1/C=C1\C(=O)Nc2ccc(F)c(C#CC3(O)CCOCC3)c21	758 nM	4.68 µM	570 nM	4.05	637 nM	2.7	2.34 µM	14.7	528 nM	3.56 µM						
CC[C@]12C=CCN3CC[C@]4(C(=C(C(=O)OC)C1)Nc1cc(O)ccc14)[C@@H]32	19100 nM	45.5 µM	3630 nM	16.8	18900 nM	38.5	22 µM	76.4	15500 nM	58.1 µM						
COc1cc(C2C3=C(COC3=O)N(CCO)c3cc4c(cc32)CCC4)cc(OC)c1O (stereo not given)	107 nM	> 21.4 µM	64.6 nM	0.191	114 nM	6.65	0.278 µM	> 32.5	106 nM	11.4 µM						
COc1cc2ccn3c4cc(OC)c(OC)cc4cc3c2cc1OC						> 100		> 100				> 100	> 100	> 100		
NC(Cc1nn[nH]n1)C(=O)O (stereo not given)		> 100 µM		> 100		> 100		> 100		> 100 µM						
CCOC(=O)c1[nH]c2c(c1C)-c1[nH]c(=O)c(S(=O)(=O)c3ccccc3)cc1SC2	40400 nM	> 100 µM	42800 nM	> 100	34600 nM	> 100	28.8 µM	86.5	24700 nM	94 µM						
COC(=O)c1cc(Nc2ccc(O)c3c2C(=O)c2c([N+](=O)[O-])ccc(O)c2C3=O)cc(C(=O)OC)c1	4300 nM	> 100 µM			3320 nM	18.9	3.99 µM	> 100	3770 nM	> 100 µM						
O=C1c2ccccc2-c2cc3ccccc3c(=O)n21		> 100 µM		> 100		> 100				> 100 µM						

Compound	GI50 (MCF7 breast)	TGI (MCF7 breast)	GI50 (MDA-MB-435)	TGI (MDA-MB-435) [µM]	GI50 (NCI-H460 lung)	TGI (NCI-H460 lung) [µM]	GI50 (OVCAR-4 ovarian)	TGI (OVCAR-4 ovarian) [µM]	GI50 (HS 578T breast)	TGI (HS 578T breast)	TGI (DMS 273 small cell lung) [µM]	TGI (KM20L2 colon) [µM]	TGI (DMS 114 small cell lung) [µM]	TGI (LXFL 529 NSCLC) [µM]	GI50 (KM20L2 colon) [µM]	GI50 (LXFL 529 NSCLC) [µM]
C/C(=C(/c1ccc(O)cc1)c1ccc(OCCN2CCCC2)cc1)c1ccccc1		2.72 µM	1880 nM	4.4	2360 nM	5.38	4.7 µM	17.5	2960 nM	9.9 µM						
CCC1OCCN1C(C)C (stereo not given)						> 100					> 100	> 100	> 100	> 100		
CC1(CC(=O)O)OC2CCCCCC2O1 (stereo not given) (tested in a mixture with another compound)		> 100 µM		> 100		> 100		> 100		> 100 µM						
COc1c(O)c(OC)c(C(=O)/C=C/c2ccccc2)c(O)c1OC		> 100 µM		66.2		45.8		> 100		> 100 µM						
COc1ccccc1C(=O)c1cnc(NC2CCN(S(C)(=O)=O)CC2)nc1N	1190 nM	> 25 µM	4830 nM	> 25	2850 nM	> 25	12.4 µM	> 25	11400 nM	> 25 µM						
COc1ccc2nc3ccc(OC)cc3c(SCCCN)c2c1			6830 nM	27.6	8660 nM	31.6	5.02 µM	17	5900 nM	15.5 µM						
O=C(N[C@@H]1CCCc2ccccc21)[C@H](CCC(=O)N1CCN(C2CCCCC2)CC1)N1C(=O)[C@@H](N2C(=O)OC[C@@H]2c2ccccc2)[C@H]1/C=C/c1ccccc1	2180 nM	13.4 µM	1350 nM	2.72	2650 nM	7.23	3.11 µM	32	3520 nM	21.1 µM						
COc1cc(C(c2cc3c(cc2O)OCO3)N2CCCC2)cc(OC)c1OC (stereo not given)		63.8 µM		32.5				34.2								
Cc1nnc([S-])s1.[Au+].c1ccc([PH+](c2ccccc2)c2ccccc2)cc1			1700 nM	3.18												
CC1(C)N=C(N)N=C(N)N1c1ccc(OCC(=O)Nc2cccc(S(=O)(=O)F)c2)c(Cl)c1		> 43.5 µM		> 100		> 100		> 100		> 100 µM						
COC(=O)c1c(C)oc2ccc(OC(C)=O)cc12						> 100		> 100			> 100	> 100	> 100			
COc1ccc(C2=CC(c3cc(OC)c(OC)c(OC)c3)n3ncnc3N2)cc1 (stereo not given)	39.9 nM	13.7 µM			41.8 nM	13.7	0.391 µM	39.5	73.4 nM	> 100 µM						
O=C1c2cccnc2C(=O)c2c1c(C(=O)OCCCN1CCOCC1)c1ccccn21	< 10 nM	< 0.0116 µM	< 11.8 nM	2.06			0.94 µM	3.99								
CC(CC(=O)O)(CC(=O)O)C(=O)O		> 100 µM		> 100		> 100		> 100		> 100 µM						
CCN(CC)CCC(=O)Nc1ccc(Cn2nnc3c2C(=O)c2nnn(Cc4ccc(NC(=O)CCN(CC)CC)cc4)c2C3=O)cc1	154 nM	0.373 µM	173 nM	0.324	356 nM	1.46	0.133 µM	0.263	2340 nM	8.84 µM						
O=C(OCc1ccccc1CN1CCOCC1)c1ccc(Br)cc1		> 100 µM		95.2		> 100		> 100		> 100 µM						
CCCCCCCCCCCCCCCC[N+]1(CC)CCCC1					437 nM	1.62	0.315 µM	2.25	679 nM	3.26 µM						
C[C@@H](NC(=O)Cc1cc(F)cc(F)c1)C(=O)N[C@@]1(C)N=C(c2ccccc2)c2ccccc2N(C)C1=O	36500 nM	> 100 µM	38900 nM	> 100	40400 nM	> 100	> 100 µM	> 100	24700 nM	> 100 µM						
CN1CCCC1c1cccnc1.O=C(O)c1ccccc1O.O=C([O-])c1ccccc1[OH2+].O=C([O-])c1ccccc1[OH2+].O=C([O-])c1ccccc1[OH2+].[Mn+2] (stereo not given)	50000 nM	> 100 µM	> 100000 nM	> 100			> 100 µM	> 100	2430 nM	> 100 µM						
CN1CC2(CCCCC2)C(O)C12C=CCCC2 (stereo not given)											> 100	> 100	> 100	> 100		
O=c1oc(-c2ccc(O)c(O)c2)cc2cc(O)cc(O)c12	42700 nM	> 100 µM	33000 nM	> 100	31000 nM	> 100	76.6 µM	> 100	39500 nM	94.4 µM						
Cc1ccc(C2=Nc3c(N)ncnc3NC(c3cccc(Nc4ccnc5cc(C(F)(F)F)ccc45)c3)C2)cc1 (stereo not given)	2410 nM	11.5 µM	1940 nM	4.84	3070 nM	10.5	4.33 µM	> 100	4010 nM	> 100 µM						
COc1cc2oc3ccccc3c(=O)c2cc1CSc1ccccc1N		> 100 µM		8.93		> 100		> 100		> 100 µM						
CC(=O)[CH-]C(=O)c1ccccc1.CC(=O)[CH-]C(=O)c1ccccc1.[O]=[U+2]=[O]					36900 nM	> 100	40.3 µM	> 100				> 100		> 100	37.1	32.7
N#CC1c2ccccc2-c2ccccc2N1C(=O)c1ccccc1 (stereo not given)	1300 nM	> 100 µM	255 nM	0.761	3060 nM	10.9	3.29 µM	> 72.3	1990 nM	6.72 µM						
